# PMC9905117, “Characterization of the metabolism of eupalinolide A and B by carboxylesterase and cytochrome P450 in human liver microsomes” (Frontiers in Pharmacology, 2023)
# Test system: Carboxylesterase
# Experiment: Inhibition of EA or EB hydrolysis in HLMs by carboxylesterase inhibitor BNPP
# Format: biochemical, human
# Settings: HLMs 0.5 g/L, no NADPH, 30 min
# Procedure: To determine ideal BNPP concentration for inhibiting carboxylesterase activity in HLMs, an incubation system consisting of 100 mM phosphate buffer solution at pH 7.4, HLMs (0.5 g/L), MgCl2 (5 mM) and BNPP (0.5, 1, 1.5 and 2 mM) was prepared ([Zhuang et al., 2014]; [Wang Y. Q. et al., 2020]; [Zhang et al., 2022d]; [Jin et al., 2022]). The mixture was preincubated at 37°C for 5 min and the metabolic reaction was initiated by addition of EA or EB (at a final concentration of 10 μM). Positive control groups lacked BNPP while negative control groups contained deactivated HLMs. […] The above reaction was terminated by adding 200 µl of ice-cold stop solution at 30 min. Sample preparation and evaluation were as described in 2.2.1. All incubations were performed in triplicate. The percentage of EA or EB hydrolysis inhibition was calculated using the following Eq. 1: Inhibition%=1−∆substrate in the presence of chemical inhibitor/∆substrate in the absence of chemical inhibitor×100% (1)
smiles,measurement,setting,value
"O=[N+]([O-])c1ccc(OP(=O)(O)Oc2ccc([N+](=O)[O-])cc2)cc1 [BNPP, bis(4-nitrophenyl) phosphoricacid]",inhibitory percentage of EA hydrolysis,"BNPP 0.5 mM, EA 10 μM",87.38%
same,inhibitory rate of EB hydrolysis,"BNPP 2 mM, EB 10 μM",86.11%
